# Key:
# male albino Wistar rats [1] = experiment: Porsolt forced swimming test; format: in vivo, rat; settings: compared to controls; single intragastric dose
# Procedure: (§1) A study was conducted to evaluate the antidepressant effect of the claimed drug, formulated as a water solution (liquid dosage form) of the activated (potentized) energy-treated carrier, obtained by multiple consecutive dilution of the initial matrix solution in an aqueous-alcoholic diluent, combined with external mechanical impact—shaking of each resulting dilution, to a degree of 100^200, equivalent to a centesimal (C200) homeopathic dilution (wherein the energy treatment of the initial neutral carrier has been accomplished by exposing it to an electric current caused by a difference of potentials being applied to electrodes placed in the initial liquid carrier and which is proportional in amplitude to an amplified combined, summed up signal, formed by summing the resultant signals—biopotential differences of individual referential derivations recorded in five healthy donors using the internationally recognized 10-20 system, which involves 19 active recording electrodes placed in regular positions all over the scalp and one reference electrode located on the ear-lobe)—further referred to as AP drug, using standard experimental approaches—by examining animals' depression-like behavior (behavioral despair) in the Porsolt forced swimming test and Nomura's model employing forced-rotating-wheel swim test. […]
# male albino Wistar rats [2] = experiment: Nomura forced-rotating-wheel swim test; format: in vivo, rat; settings: compared to controls; single intragastric dose; 10 minutes
# Procedure: as §1
compound,measurement,setting,value
"CN(C)CCC=C1c2ccccc2CCc2ccccc21 [reference compound, amitriptyline]",Reduction of immobility time,male albino Wistar rats [1],56%
same,Increase of number of wheel rotations,male albino Wistar rats [2],67%

# Reference: US20170333560A1, “Pharmaceutical Composition That Includes A Neutral Carrier Treated With Energy And Related Methods Of Treatment” (priority 2016, published 2017)
